Experimental findings from ChEMBL document CHEMBL3352205, “Indazole- and indole-5-carboxamides: selective and reversible monoamine oxidase B inhibitors with subnanomolar potency” (J Med Chem, 2014) are described below.

The species entered for one assay is Homo sapiens. The experiment in a line: Selectivity index, ratio of IC50 for human recombinant MAO-A to IC50 for human recombinant MAO-B.
Assay [1] concerns the target T1, Amine oxidase [flavin-containing] A (Homo sapiens, UniProt P21397).
T1 sequence (P21397 whole entry): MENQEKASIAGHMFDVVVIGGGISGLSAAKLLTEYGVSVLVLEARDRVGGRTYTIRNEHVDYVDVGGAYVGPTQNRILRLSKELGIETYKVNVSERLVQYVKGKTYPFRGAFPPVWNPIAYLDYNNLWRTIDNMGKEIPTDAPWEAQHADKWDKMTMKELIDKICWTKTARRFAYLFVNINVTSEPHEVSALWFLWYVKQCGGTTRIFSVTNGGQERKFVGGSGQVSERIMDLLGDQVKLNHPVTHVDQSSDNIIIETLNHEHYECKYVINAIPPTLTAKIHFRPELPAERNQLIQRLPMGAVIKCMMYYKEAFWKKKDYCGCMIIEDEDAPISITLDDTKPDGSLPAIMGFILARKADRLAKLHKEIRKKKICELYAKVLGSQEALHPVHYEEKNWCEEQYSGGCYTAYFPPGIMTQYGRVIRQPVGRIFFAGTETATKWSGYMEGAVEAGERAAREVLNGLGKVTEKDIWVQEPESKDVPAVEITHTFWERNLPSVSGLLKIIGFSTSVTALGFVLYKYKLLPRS
Put plainly: Inhibition of human recombinant MAO-A expressed in baculovirus-infected insect cells using p-tyraimne substrate.

Assay [2] addresses T2, Amine oxidase [flavin-containing] B (Homo sapiens, UniProt P27338).
T2 sequence (P27338 whole entry): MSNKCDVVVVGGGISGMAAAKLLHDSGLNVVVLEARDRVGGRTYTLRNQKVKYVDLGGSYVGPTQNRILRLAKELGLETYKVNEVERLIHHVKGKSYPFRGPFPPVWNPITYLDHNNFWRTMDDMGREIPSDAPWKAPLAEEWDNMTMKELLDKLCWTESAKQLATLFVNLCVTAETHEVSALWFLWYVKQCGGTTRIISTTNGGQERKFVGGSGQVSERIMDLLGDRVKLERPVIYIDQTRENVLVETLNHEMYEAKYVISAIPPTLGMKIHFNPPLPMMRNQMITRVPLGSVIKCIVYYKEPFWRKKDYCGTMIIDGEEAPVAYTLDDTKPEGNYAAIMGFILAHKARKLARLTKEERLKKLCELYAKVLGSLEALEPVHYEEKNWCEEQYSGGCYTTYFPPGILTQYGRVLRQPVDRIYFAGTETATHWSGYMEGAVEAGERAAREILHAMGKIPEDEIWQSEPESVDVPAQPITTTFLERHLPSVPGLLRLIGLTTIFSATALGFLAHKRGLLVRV
Put plainly: biochemical. It is filed as cell-based.
Description: Inhibition of human recombinant MAO-B expressed in baculovirus-infected insect cells using p-tyraimne substrate

The target of assay [3] is T3, Amine oxidase [flavin-containing] A (Rattus norvegicus, UniProt P21396).
T3 sequence (P21396 whole entry): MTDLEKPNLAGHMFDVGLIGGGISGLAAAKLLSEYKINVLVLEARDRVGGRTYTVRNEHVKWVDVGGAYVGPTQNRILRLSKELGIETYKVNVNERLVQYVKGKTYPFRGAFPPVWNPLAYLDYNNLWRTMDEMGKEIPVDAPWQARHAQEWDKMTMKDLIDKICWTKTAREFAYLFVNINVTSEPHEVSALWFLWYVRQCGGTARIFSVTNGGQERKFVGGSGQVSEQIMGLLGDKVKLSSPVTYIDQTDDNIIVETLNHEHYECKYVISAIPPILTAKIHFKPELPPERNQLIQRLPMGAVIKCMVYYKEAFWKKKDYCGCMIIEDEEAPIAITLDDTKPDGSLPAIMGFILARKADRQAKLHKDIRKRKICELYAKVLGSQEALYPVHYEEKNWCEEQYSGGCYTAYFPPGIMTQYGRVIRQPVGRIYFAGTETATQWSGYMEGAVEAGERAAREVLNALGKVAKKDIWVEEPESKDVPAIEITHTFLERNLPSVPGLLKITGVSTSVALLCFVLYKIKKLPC
The experiment in a line: Inhibition of rat MAO-A from mitochondria-enriched rat liver fractions using p-tyraimne substrate.

For assay [4], the target named is T4, Amine oxidase [flavin-containing] B (Rattus norvegicus, UniProt P19643).
T4 sequence (P19643 whole entry): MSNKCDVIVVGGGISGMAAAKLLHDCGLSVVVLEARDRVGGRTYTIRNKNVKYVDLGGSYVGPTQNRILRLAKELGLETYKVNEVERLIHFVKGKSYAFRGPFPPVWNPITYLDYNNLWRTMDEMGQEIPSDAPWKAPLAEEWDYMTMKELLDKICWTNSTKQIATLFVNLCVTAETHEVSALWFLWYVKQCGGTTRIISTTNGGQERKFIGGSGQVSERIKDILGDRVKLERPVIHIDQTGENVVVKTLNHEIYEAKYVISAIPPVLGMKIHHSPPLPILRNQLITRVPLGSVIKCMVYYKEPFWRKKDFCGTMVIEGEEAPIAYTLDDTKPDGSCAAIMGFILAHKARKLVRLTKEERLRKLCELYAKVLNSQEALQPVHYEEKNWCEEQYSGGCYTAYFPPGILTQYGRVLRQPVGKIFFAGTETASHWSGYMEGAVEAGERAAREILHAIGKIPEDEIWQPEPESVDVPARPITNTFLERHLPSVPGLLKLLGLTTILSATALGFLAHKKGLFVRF
The experiment in a line: Inhibition of rat MAO-B from mitochondria-enriched rat liver fractions using p-tyraimne substrate.

The term IC50 denotes the midpoint of a concentration-inhibition curve.

`O=C(Nc1cnc(Cl)c(Cl)c1)c1ccc2[nH]ncc2c1`: in the assay filed under Homo sapiens, the Ratio IC50 came out at 1840.
Turning to `COc1ccc(NC(=O)c2ccc3[nH]ncc3c2)cc1OC`, the Ratio IC50 in the assay listed under Homo sapiens was over 54.
On the same count and under the same terms, the result for `COc1ccc(NC(=O)c2ccc3[nH]ncc3c2)cc1Cl` reads 2920.
`O=C(Nc1cc(Cl)cc(Cl)c1)c1ccc2[nH]ncc2c1`: the IC50 is over 10 µM in assay [1] (read-out: IC50), 0.00275 µM in assay [2], over 10 µM in assay [3] and 0.00273 µM in assay [4]. The Ratio IC50 in the assay listed under Homo sapiens was determined as 3640.
With `O=C(Nc1ccc(Cl)c(O)c1)c1ccc2cn[nH]c2c1`, the IC50 in assay [1] (read-out: IC50) was over 10 µM; in assay [2], 6.22 µM; in assay [3], over 10 µM; in assay [4], over 10 µM. The Ratio IC50 in the assay filed under Homo sapiens was 2.
For the molecule `COc1cc(NC(=O)c2ccc3cn[nH]c3c2)ccc1Cl`, the IC50 was over 10 µM in assay [1] (read-out: IC50), 2.76 µM in assay [2], over 10 µM in assay [3] and over 10 µM in assay [4]. Moreover, the Ratio IC50 in the assay filed under Homo sapiens stood at 4.
With `O=C(Nc1ccc(F)c(F)c1)c1ccc2cn[nH]c2c1`, the 50% inhibitory concentration (IC50) in assay [1] (read-out: IC50) is over 10 µM; in assay [2], 1.3 µM; in assay [3], over 10 µM; in assay [4], under 10 µM. Further, the Ratio IC50 in the assay filed under Homo sapiens was over 7.
Regarding `O=C(Nc1ccc(Cl)c(Cl)c1)c1ccc2cn[nH]c2c1`, the half-inhibitory concentration (IC50) in assay [1] (read-out: IC50) was 3.31 µM; in assay [2], 0.0671 µM; in assay [3], under 10 µM; in assay [4], 0.466 µM. For the same molecule, the Ratio IC50 in the assay listed under Homo sapiens was over 49.
For `O=C(Nc1ccc2[nH]ncc2c1)c1cccc(Cl)c1Cl`, the IC50 in assay [1] (read-out: IC50) was over 10 µM; in assay [2], 2.59 µM; in assay [3], over 10 µM; in assay [4], over 10 µM.
Turning to `O=C(NCc1ccc(Cl)c(Cl)c1)c1ccc2[nH]ncc2c1`, the concentration for half-maximal inhibition (IC50) is over 10 µM in assay [1] (read-out: IC50), 0.388 µM in assay [2], over 10 µM in assay [3] and 0.837 µM in assay [4]. Also, the Ratio IC50 in the assay listed under Homo sapiens is over 25.
As for `Cn1ccc2cc(C(=O)Nc3ccc(Cl)c(Cl)c3)ccc21`, the IC50 is over 10 µM in assay [1] (read-out: IC50), 0.00226 µM in assay [2], over 10 µM in assay [3] and 0.00111 µM in assay [4]. In addition, in the assay listed under Homo sapiens, the Ratio IC50 was 4420.
Turning to `O=C(Nc1ccc(Cl)c(Cl)c1)c1ccc2[nH]ccc2c1`, the results for the IC50 in assay [1] (read-out: IC50), in assay [3] and in assay [4] were 1.3 µM, 6.79 µM and 0.00101 µM, respectively.
Turning to `O=C(Nc1ccc2[nH]ncc2c1)c1ccc(Cl)c(Cl)c1`, the IC50 in assay [1] (read-out: IC50) was over 10 µM; in assay [2] it was 0.0124 µM; in assay [3], over 10 µM; in assay [4], 0.138 µM. In the assay listed under Homo sapiens, the Ratio IC50 worked out at 806.
As to `O=C(Nc1ccc(Cl)c(F)c1)c1ccc2[nH]ncc2c1`, in assay [1] (read-out: IC50), the IC50 is over 10 µM. In addition, in the assay listed under Homo sapiens, the Ratio IC50 was 15000.
Regarding `O=C(Nc1ccc(Cl)c(O)c1)c1ccc2[nH]ncc2c1`, the Ratio IC50 in the assay filed under Homo sapiens was 80.
Consider `O=C(Nc1ccc(Cl)c(Cl)c1)c1ccc2nccn2c1`, for which the IC50 was over 10 µM in assay [1] (read-out: IC50), 0.141 µM in assay [2], over 10 µM in assay [3] and 1.14 µM in assay [4]. Further, the Ratio IC50 in the assay filed under Homo sapiens came out at 71.
In the case of `O=C(Nc1ccc(F)c(Cl)c1)c1ccc2cn[nH]c2c1`, the IC50 in assay [1] (read-out: IC50) is over 10 µM; in assay [2], 0.234 µM; in assay [3], over 10 µM; in assay [4], 1.07 µM. For the same molecule, the Ratio IC50 in the assay listed under Homo sapiens was over 42.
For the molecule `O=C(Nc1ccc2cn[nH]c2c1)c1cnc(N2CCOCC2)c(Cl)c1`, the IC50 in assay [1] (read-out: IC50) is over 10 µM; in assay [2] it was 0.22 µM; in assay [3], over 10 µM; in assay [4], 1.99 µM. Also, the Ratio IC50 in the assay filed under Homo sapiens was over 9.
As to `O=C(Nc1ccc(Cl)c(F)c1)c1ccc2cn[nH]c2c1`, the IC50 in assay [1] (read-out: IC50) was over 10 µM; in assay [2], 0.316 µM; in assay [3] it was over 10 µM; in assay [4], 2.67 µM. The Ratio IC50 in the assay filed under Homo sapiens was over 31.
On to `COc1ccc(NC(=O)c2ccc3cn[nH]c3c2)cc1Cl`, for which the half-inhibitory concentration (IC50) in assay [1] (read-out: IC50) was over 10 µM; in assay [2] it was 1.28 µM; in assay [3], over 10 µM; in assay [4] it was under 10 µM. Besides, the Ratio IC50 in the assay listed under Homo sapiens worked out at 8.
For `COc1cc(NC(=O)c2ccc3[nH]ncc3c2)ccc1Cl`, in the assay filed under Homo sapiens, the Ratio IC50 worked out at 2020.
On to `O=C(Nc1cc(Cl)cc(Cl)c1)c1ccc2cn[nH]c2c1`, for which the IC50 in assay [1] (read-out: IC50) is over 10 µM; in assay [2], 0.335 µM; in assay [3] it was over 10 µM; in assay [4], 0.423 µM. In addition, the Ratio IC50 in the assay listed under Homo sapiens is over 29.
As to `O=C(Nc1ccc(F)c(F)c1)c1ccc2[nH]ncc2c1`, the Ratio IC50 in the assay filed under Homo sapiens worked out at 6290.
For the molecule `Cn1ncc2cc(/C=N/c3ccc(Cl)c(Cl)c3)ccc21`, the IC50 in assay [1] (read-out: IC50) was under 10 µM; in assay [2] it was 0.00103 µM; in assay [3], over 10 µM; in assay [4], 0.00455 µM. For the same molecule, the Ratio IC50 in the assay filed under Homo sapiens is 9710.
On to `Clc1ccc(/N=C/c2ccc3[nH]ncc3c2)cc1Cl`, for which the IC50 in assay [1] (read-out: IC50) was under 10 µM; in assay [3], over 10 µM.
In the case of `O=C(Nc1ccc(O)c(Cl)c1)c1ccc2cn[nH]c2c1`, the IC50 is over 10 µM in assay [1] (read-out: IC50), under 10 µM in assay [2], over 10 µM in assay [3] and 3.28 µM in assay [4].
For `O=C(Nc1ccccc1)c1ccc2[nH]ncc2c1`, the IC50 in assay [1] (read-out: IC50) is over 10 µM; in assay [2] it was 0.117 µM; in assay [3] it was over 10 µM; in assay [4], 0.708 µM. The Ratio IC50 in the assay filed under Homo sapiens was over 86.
With `O=[N+]([O-])c1ccc2[nH]ncc2c1`, the half-inhibitory concentration (IC50) result in assay [1] is “Not Active”; in assay [2], 2.5 µM.
On to `O=C(Cc1ccc(Cl)c(Cl)c1)Nc1ccc2[nH]ncc2c1`, for which the IC50 in assay [1] (read-out: IC50) is over 10 µM; in assay [2] it was 0.882 µM; in assay [3], over 10 µM; in assay [4], over 10 µM. The Ratio IC50 in the assay filed under Homo sapiens was over 11.
For `COc1ccc(NC(=O)c2ccc3cn[nH]c3c2)cc1OC`, the IC50 in assay [1] (read-out: IC50), in assay [2], in assay [3] and in assay [4] was over 10 µM throughout.
`Cn1cc(C(=O)Nc2ccc3[nH]ncc3c2)ccc1=O`: the IC50 in assay [1] (read-out: IC50), in assay [2], in assay [3] and in assay [4] was over 10 µM in each case.
For the molecule `O=C(Nc1ccc2[nH]ncc2c1)c1c(F)cccc1Cl`, the IC50 in assay [1] (read-out: IC50) is over 10 µM; in assay [2] it was 3.3 µM; in assay [3] it was over 10 µM; in assay [4], over 10 µM.
Regarding `O=C(Nc1ccc(Cl)c(Cl)c1)c1ccc2nncn2c1`, the IC50 was over 10 µM in assay [1] (read-out: IC50), 2.27 µM in assay [2], over 10 µM in assay [3] and over 10 µM in assay [4]. For the same molecule, the Ratio IC50 in the assay filed under Homo sapiens is over 4.
Turning to `O=C(Nc1ccc(O)c(Cl)c1)c1ccc2[nH]ncc2c1`, the Ratio IC50 in the assay filed under Homo sapiens is over 81.
